Experiments:
Experiment in all cases: KINOMEscan competition binding
Settings in all cases: compound 1.0 µM
MAP3K9 (human) = MAP3K9 (human) (UniProt P80192)
MYLK4 (human) = MYLK4 (human) (UniProt Q86YV6)
CAMK2G (human) = CAMK2G (human) (UniProt Q13555)
MAPK15 (human) = MAPK15 (human) (UniProt Q8TD08)
MATK (human) = MATK (human) (UniProt P42679)
EPHA3 (human) = EPHA3 (human) (UniProt P29320)
MKNK2 (human) = MKNK2 (human) (UniProt Q9HBH9)
PRPF4B (human) = PRPF4B (human) (UniProt Q13523)
FGFR3 (human) = FGFR3 (human) (UniProt P22607)
[1] = test system: PIK3CA (human), P42336 [E545A]
Chain of PIK3CA (human), P42336 [E545A] (P42336 whole entry E545A, looked up): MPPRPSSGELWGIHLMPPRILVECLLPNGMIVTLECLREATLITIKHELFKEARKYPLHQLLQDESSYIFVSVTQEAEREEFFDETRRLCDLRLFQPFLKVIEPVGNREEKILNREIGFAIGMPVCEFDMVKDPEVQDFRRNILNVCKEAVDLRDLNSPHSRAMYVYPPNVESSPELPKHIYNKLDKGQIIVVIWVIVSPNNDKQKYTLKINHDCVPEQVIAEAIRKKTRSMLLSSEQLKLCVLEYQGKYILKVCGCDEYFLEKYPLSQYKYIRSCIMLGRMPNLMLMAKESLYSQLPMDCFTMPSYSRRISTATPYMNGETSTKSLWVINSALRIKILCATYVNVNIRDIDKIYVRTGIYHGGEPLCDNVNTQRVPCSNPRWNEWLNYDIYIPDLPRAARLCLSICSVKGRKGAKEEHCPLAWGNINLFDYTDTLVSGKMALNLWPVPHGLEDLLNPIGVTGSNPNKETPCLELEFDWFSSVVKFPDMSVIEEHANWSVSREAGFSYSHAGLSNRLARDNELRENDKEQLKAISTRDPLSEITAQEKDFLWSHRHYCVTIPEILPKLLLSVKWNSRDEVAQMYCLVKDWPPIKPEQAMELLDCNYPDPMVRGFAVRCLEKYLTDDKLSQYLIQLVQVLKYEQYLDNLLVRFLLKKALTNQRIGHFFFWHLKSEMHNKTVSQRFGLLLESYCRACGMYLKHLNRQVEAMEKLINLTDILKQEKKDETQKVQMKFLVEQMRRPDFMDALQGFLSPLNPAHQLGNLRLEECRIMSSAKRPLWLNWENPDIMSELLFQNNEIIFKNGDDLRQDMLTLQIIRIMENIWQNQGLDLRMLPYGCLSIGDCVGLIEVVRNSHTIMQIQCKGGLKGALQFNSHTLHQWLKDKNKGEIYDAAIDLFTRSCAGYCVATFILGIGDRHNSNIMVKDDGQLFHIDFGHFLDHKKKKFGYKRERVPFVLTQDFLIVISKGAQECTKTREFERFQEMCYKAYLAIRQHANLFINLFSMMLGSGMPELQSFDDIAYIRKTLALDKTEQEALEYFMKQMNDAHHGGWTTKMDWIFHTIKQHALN

RET (human) = RET (human) (UniProt P07949)
CLK3 (human) = CLK3 (human) (UniProt P49761)
ITK (human) = ITK (human) (UniProt Q08881)
STK39 (human) = STK39 (human) (UniProt Q9UEW8)
ACVR1B (human) = ACVR1B (human) (UniProt P36896)
NUAK1 (human) = NUAK1 (human) (UniProt O60285)
MAPK11 (human) = MAPK11 (human) (UniProt Q15759)
Chain of MAPK11 (human) (Q15759 whole entry, looked up): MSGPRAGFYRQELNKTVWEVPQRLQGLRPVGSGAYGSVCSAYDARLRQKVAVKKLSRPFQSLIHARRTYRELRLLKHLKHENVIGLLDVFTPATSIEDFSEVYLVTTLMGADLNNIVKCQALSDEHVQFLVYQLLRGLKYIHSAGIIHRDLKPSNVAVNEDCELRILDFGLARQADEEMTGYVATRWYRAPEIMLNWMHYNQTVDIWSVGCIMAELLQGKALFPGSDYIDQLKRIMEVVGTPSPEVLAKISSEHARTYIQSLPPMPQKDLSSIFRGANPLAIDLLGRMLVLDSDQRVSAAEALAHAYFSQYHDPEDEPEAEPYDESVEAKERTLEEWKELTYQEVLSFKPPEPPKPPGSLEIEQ

[2] = test system: KIT (human), P10721 [V559D]
Chain of KIT (human), P10721 [V559D] (P10721 whole entry V559D, looked up): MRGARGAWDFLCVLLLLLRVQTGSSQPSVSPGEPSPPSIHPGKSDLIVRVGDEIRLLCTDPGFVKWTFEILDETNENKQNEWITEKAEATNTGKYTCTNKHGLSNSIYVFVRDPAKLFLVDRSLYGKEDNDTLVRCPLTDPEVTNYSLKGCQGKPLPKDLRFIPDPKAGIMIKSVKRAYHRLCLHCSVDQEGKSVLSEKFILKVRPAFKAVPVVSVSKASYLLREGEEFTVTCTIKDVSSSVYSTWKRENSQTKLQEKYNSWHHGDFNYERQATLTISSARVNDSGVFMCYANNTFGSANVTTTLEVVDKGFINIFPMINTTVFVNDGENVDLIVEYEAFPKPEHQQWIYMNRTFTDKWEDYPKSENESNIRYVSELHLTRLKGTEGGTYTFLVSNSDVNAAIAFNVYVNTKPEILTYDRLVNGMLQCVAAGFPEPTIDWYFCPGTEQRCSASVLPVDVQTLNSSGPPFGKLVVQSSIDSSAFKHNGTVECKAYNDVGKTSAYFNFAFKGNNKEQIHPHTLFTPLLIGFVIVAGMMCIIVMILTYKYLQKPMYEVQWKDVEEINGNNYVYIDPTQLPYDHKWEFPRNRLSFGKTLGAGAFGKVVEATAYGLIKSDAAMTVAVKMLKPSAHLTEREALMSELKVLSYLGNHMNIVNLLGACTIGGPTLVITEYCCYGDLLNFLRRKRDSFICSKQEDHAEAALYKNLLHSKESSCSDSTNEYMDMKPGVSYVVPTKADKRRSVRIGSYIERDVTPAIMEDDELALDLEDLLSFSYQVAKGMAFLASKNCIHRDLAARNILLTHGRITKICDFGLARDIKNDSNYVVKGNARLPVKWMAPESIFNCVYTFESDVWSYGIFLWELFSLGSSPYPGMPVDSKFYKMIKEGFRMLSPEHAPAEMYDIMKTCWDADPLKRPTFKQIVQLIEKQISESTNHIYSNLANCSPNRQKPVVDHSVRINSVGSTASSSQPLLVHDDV

MAP3K5 (human) = MAP3K5 (human) (UniProt Q99683)
CSNK2A1 (human) = CSNK2A1 (human) (UniProt P68400)
LYN (human) = LYN (human) (UniProt P07948)
Chain of LYN (human) (P07948 whole entry, looked up): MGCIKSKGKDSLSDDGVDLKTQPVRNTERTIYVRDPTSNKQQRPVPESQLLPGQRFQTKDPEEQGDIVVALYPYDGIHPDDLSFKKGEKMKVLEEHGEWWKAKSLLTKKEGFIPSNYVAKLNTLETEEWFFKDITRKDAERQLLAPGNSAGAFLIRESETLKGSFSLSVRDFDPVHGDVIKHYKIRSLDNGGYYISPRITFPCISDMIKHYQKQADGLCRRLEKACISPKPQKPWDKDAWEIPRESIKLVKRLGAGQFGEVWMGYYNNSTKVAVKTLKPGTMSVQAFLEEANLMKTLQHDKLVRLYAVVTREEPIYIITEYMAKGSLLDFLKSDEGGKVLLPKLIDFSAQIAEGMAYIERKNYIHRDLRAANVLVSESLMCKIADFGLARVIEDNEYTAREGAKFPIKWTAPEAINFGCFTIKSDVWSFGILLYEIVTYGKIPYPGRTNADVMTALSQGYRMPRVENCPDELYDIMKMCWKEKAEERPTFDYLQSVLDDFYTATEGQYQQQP

INSR (human) = INSR (human) (UniProt P06213)
CDK15 (human) = CDK15 (human) (UniProt Q96Q40)
HIPK2 (human) = HIPK2 (human) (UniProt Q9H2X6)
ABL2 (human) = ABL2 (human) (UniProt P42684)
STK10 (human) = STK10 (human) (UniProt O94804)
PDGFRA (human) = PDGFRA (human) (UniProt P16234)
EPHA6 (human) = EPHA6 (human) (UniProt Q9UF33)
[3] = test system: RET (human), P07949 [V804L]
MAPK6 (human) = MAPK6 (human) (UniProt Q16659)
SRPK1 (human) = SRPK1 (human) (UniProt Q96SB4)
[4] = test system: KIT (human), P10721 [V559D/T670I]
Chain of KIT (human), P10721 [V559D/T670I] (P10721 whole entry V559D/T670I, looked up): as the sequence (P10721 whole entry V559D, looked up) above, with T670I counted along it

[5] = test system: EGFR (human), P00533 [752-759 del]
MAK (human) = MAK (human) (UniProt P20794)
FER (human) = FER (human) (UniProt P16591)
CPK1 (P.falciparum) = test system: CPK1 (P.falciparum)
AAK1 (human) = AAK1 (human) (UniProt Q2M2I8)
PKN2 (human) = PKN2 (human) (UniProt Q16513)
RIPK4 (human) = RIPK4 (human) (UniProt P57078)

Chain of PRPF4B (human) (Q13523 whole entry, looked up): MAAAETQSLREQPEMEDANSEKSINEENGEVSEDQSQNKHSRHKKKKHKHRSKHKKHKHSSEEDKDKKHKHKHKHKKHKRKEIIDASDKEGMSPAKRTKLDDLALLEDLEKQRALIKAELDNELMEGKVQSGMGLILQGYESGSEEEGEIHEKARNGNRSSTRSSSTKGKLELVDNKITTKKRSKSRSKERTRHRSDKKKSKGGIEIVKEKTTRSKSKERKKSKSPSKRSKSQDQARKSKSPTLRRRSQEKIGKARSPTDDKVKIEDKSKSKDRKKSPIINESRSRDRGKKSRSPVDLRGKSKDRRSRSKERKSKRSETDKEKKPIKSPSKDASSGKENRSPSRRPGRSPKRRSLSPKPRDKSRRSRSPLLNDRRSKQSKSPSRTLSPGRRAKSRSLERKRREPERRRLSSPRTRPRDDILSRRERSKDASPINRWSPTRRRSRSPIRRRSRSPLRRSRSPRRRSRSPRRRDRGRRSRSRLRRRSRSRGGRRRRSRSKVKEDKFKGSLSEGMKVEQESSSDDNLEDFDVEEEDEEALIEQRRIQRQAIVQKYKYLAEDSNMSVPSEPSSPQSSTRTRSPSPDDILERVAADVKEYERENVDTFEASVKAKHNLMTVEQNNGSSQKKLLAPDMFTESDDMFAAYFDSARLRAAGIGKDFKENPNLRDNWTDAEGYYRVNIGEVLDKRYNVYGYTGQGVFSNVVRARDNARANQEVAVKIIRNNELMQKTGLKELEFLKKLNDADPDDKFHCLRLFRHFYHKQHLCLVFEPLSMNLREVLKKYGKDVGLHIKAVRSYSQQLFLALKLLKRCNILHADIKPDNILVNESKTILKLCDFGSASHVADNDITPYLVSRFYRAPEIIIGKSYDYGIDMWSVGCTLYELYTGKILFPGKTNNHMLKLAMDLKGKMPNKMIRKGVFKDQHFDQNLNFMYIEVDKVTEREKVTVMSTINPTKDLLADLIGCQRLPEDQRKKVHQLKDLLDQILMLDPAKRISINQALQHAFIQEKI
Chain of EPHA3 (human) (P29320 whole entry, looked up): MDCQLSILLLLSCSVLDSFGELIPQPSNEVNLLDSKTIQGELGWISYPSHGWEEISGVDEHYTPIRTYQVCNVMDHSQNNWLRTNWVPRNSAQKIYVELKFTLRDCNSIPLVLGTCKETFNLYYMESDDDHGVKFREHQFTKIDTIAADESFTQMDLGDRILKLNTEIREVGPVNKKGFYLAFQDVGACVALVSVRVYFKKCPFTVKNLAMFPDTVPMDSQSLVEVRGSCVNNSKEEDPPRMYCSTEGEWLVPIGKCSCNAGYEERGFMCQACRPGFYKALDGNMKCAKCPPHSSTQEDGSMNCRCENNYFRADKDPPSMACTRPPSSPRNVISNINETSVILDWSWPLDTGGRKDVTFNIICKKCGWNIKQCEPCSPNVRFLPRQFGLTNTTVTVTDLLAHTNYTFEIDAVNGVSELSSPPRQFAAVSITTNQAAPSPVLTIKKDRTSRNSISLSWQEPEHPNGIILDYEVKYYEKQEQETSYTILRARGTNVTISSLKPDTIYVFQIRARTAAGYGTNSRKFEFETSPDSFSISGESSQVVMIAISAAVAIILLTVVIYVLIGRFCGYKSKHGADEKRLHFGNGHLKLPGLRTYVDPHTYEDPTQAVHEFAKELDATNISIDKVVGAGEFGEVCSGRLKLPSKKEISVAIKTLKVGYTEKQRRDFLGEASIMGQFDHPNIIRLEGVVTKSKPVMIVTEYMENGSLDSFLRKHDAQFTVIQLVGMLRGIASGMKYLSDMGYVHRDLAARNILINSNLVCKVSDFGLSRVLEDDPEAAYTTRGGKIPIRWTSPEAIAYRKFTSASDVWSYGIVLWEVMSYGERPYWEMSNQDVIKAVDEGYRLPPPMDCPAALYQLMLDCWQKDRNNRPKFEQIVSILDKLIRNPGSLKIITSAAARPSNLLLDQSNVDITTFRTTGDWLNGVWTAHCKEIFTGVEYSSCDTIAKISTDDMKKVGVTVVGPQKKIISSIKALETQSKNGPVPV

`CNc1nc(Nc2ccc(C(=O)N3CCOCC3)cc2OC)ncc1Cl` gave a kinase still bound, per cent of control (MAP3K9 (human)) of 100%, a kinase still bound, per cent of control (MYLK4 (human)) of 100% and a kinase still bound, per cent of control (CAMK2G (human)) of 93%. For the same compound, the kinase still bound, per cent of control (MAPK15 (human)) was 100%, the kinase still bound, per cent of control (MATK (human)) was 100% and the kinase still bound, per cent of control (EPHA3 (human)) was 100%. The kinase still bound, per cent of control (MKNK2 (human)) was 14%, the kinase still bound, per cent of control (PRPF4B (human)) was 98% and the kinase still bound, per cent of control (FGFR3 (human)) was 100%. It also gave a kinase still bound, per cent of control [1] of 68%, a kinase still bound, per cent of control (RET (human)) of 96% and a kinase still bound, per cent of control (CLK3 (human)) of 100%. The kinase still bound, per cent of control (ITK (human)) was 100%, the residual activity (STK39 (human)) was 100% and the kinase still bound, per cent of control (ACVR1B (human)) was 100%. For the same compound, the kinase still bound, per cent of control (NUAK1 (human)) was 82%, the kinase still bound, per cent of control (MAPK11 (human)) was 100% and the kinase still bound, per cent of control [2] was 18%. For the same compound, the kinase still bound, per cent of control (MAP3K5 (human)) was 100%, the kinase still bound, per cent of control (CSNK2A1 (human)) was 76% and the kinase still bound, per cent of control (LYN (human)) was 100%. The kinase still bound, per cent of control (INSR (human)) was 82%, the residual activity (CDK15 (human)) was 84% and the kinase still bound, per cent of control (HIPK2 (human)) was 100%. The kinase still bound, per cent of control (ABL2 (human)) was 100%, the kinase still bound, per cent of control (STK10 (human)) was 100% and the kinase still bound, per cent of control (PDGFRA (human)) was 87%. For the same compound, the kinase still bound, per cent of control (EPHA6 (human)) was 100%, the kinase still bound, per cent of control [3] was 99% and the kinase still bound, per cent of control (MAPK6 (human)) was 100%. It also gave a kinase still bound, per cent of control (SRPK1 (human)) of 81%, a kinase still bound, per cent of control [4] of 100% and a kinase still bound, per cent of control [5] of 100%. It also gave a kinase still bound, per cent of control (MAK (human)) of 100%, a kinase still bound, per cent of control (FER (human)) of 100% and a kinase still bound, per cent of control (CPK1 (P.falciparum)) of 78%. The kinase still bound, per cent of control (AAK1 (human)) was 38%, the kinase still bound, per cent of control (PKN2 (human)) was 79% and the kinase still bound, per cent of control (RIPK4 (human)) was 100%.

— the kinase profiling compilation of Christmann-Franck et al. (2016)
